As a reminder, the mortality is the percentage killed. High values mean a strong lethal effect, low ones a weak lethal effect.

Holding throughout (format): in vivo
Data set [1] relates to Myzus persicae (Green Peach Aphid). Kind of data set: whole plant or invertebrate. Conditions: foliar, 144 h, sunflower leaf discs sprayed, 6 days incubation. As for the experimental part: Example B1: Activity Against Myzus persicae (Green Peach Aphid) (Mixed Population, Feeding/Residual Contact Activity, Preventive)
Sunflower leaf discs were placed on agar in a 24-well microtiter plate and sprayed with test solutions. After drying, the leaf discs were infested with an aphid population of mixed ages. After an incubation period of 6 days, samples were checked for mortality and special effects (e.g. phytotoxicity).

Data set [2] has the same test system. Briefly: whole plant or invertebrate. The following applies: 144 h, pea seedlings, roots in test solution, 6 days after introduction. The source says:
Example B2: Activity Against Myzus persicae (Green Peach Aphid) (Mixed Population, Systemic/Feeding Activity, Curative)
Pea seedlings, infested with an aphid population of mixed ages, were placed with the roots directly in the test solutions. 6 days after introduction, samples were checked for mortality and special effects on the plant.

For data set [3], the system named is Bemisia tabaci. Briefly: whole plant or invertebrate. Conditions: foliar, 168 h, cotton leaf discs sprayed, adult white flies, 7 DAT. As to the method:
Example B3: Activity Against Bemisia tabaci, (Adults on Cotton, Contact, Preventative)
Cotton leaf discs are placed on agar in a 24-well microtiter plate and sprayed with test solutions. After drying, the leaf discs are infested with adult white flies. After an incubation period of 7 DAT, samples are checked for mortality and special effects (e.g. phytotoxicity).

Data set [4] relates to Rhopalosiphum padi (Bird Cherry Oat Aphid). Briefly: Activity against Rhopalosiphum padi, barley, seed treatment, mixed population, systemic/feeding activity, preventive. As to the method:
Example B5: Activity Against Rhopalosiphum padi (Bird Cherry Oat Aphid, Barley) (Seed Treatment) Mixed Population, Systemic/Feeding Activity, Preventive
The barley seeds were coated with the active ingredients as described in the formulation example F9 above.
A treated barley seed was sown in a 350 ml pot filled with soil. Two weeks after sowing the barley seedling was infested with an aphid population of mixed stages. After an incubation period of seven days the grade of efficacy was estimated and expressed in percentage.
Activity against Rhopalosiphum padi (Bird Cherry Oat Aphid, barley) (seed treatment) mixed population, systemic/feeding activity, preventive: […]

On to `Cc1cccnc1-n1ncc(C(=O)N(C)c2cccnc2)c1C` [Compound 1.001, 1-(3-methylpyridin-2-yl)-5-methyl-1H-pyrazole-4-carboxylic acid methyl-pyridin-3-yl-amide], for which the mortality at 200 ppm in data set [1] was at least 80%; in data set [3], over 80%. For the same compound, the mortality at 24 ppm in data set [2] is over 80%. Also, the “Mortality (%)” value stood at 70% in data set [4] (0.01 mg ai/seed); 85% in data set [4] (0.03 mg ai/seed); 95% in data set [4] (0.1 mg ai/seed); 99% in data set [4] (0.3 mg ai/seed); 99% in data set [4] (1 mg ai/seed).
For the compound `Cc1cc(Br)cnc1-n1ncc(C(=O)N(C)c2cccnc2)c1C` [Compound 1.003, 1-(5-bromo-3-methyl-2-pyridyl)-N,5-dimethyl-N-(3-pyridyl)pyrazole-4-carboxamide], the mortality at 200 ppm in data set [1] was at least 80%.
The compound `Cc1cc(C#N)cnc1-n1ncc(C(=O)N(C)c2cccnc2)c1C` [Compound 1.004, 1-(5-cyano-3-methyl-2-pyridyl)-N,5-dimethyl-N-(3-pyridyl)pyrazole-4-carboxamide] yielded a mortality at 200 ppm in data set [1] of at least 80%. The mortality at 24 ppm in data set [2] is over 80%.
On to `CCc1cccnc1-n1ncc(C(=O)N(C)c2cccnc2)c1C` [Compound 1.025, 1-(3-ethyl-2-pyridyl)-N,5-dimethyl-N-(3-pyridyl)pyrazole-4-carboxamide], for which the mortality at 200 ppm in data set [1] is at least 80%.
As for `Cc1cccnc1-n1ncc(C(=O)N(C)c2ccc[n+]([O-])c2)c1C` [Compound 1.079, 1-(3-methylpyridin-2-yl)-5-methyl-1H-pyrazole-4-carboxylic acid methyl-pyridin-N-oxide-3-yl-amide], in data set [1], the mortality at 200 ppm is at least 80%. In data set [2], this compound had a mortality at 24 ppm of over 80%.
As for `Cc1ccc(Cl)nc1-n1ncc(C(=O)N(C)c2ccnnc2)c1C` [Compound 1.230, 1-(6-chloro-3-methyl-2-pyridyl)-N,5-dimethyl-N-pyridazin-4-yl-pyrazole-4-carboxamide], the mortality at 200 ppm in data set [1] was at least 80%; in data set [3], over 80%.
On to `Cc1c(C(=O)N(C)c2cccnc2)cnn1-c1ncccc1Cl` [Compound 877, reference compound], for which the “Mortality (%)” value is on record as 0% in data set [4] (0.01 mg ai/seed); 0% in data set [4] (0.03 mg ai/seed); 42% in data set [4] (0.1 mg ai/seed); 63% in data set [4] (0.3 mg ai/seed); 84% in data set [4] (1 mg ai/seed).

For the origin of these results see patent publication US9750253B2, “Pesticidally active substituted pyridyl carboxamides” (Syngenta Participations AG, priority 2013, dated 2017).
